In article PMC6838683, “Discovery of Human Signaling Systems: Pairing Peptides to G Protein-Coupled Receptors” (Cell, 2019):
Positions of bridges follow the written chain, without caps; N, C: chain ends. Residues, ends and D or L forms follow the SMILES beside them.

What was measured:
GPR68 [1] = target: T1, GPR68 (Homo sapiens, UniProt Q15743); assay: Dynamic mass redistribution (DMR), concentration-response; type: cell-based; set-up: hIL-2Ra signal peptide (N); expressed in transfected cells; conditions: GPR68, mean, SEM and n; for EC50: read-out: pEC50, DMR (AUC) (converted)
In short: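 Doxycycline-induced (0.1 μg/ml) SNAP-tagged receptors in TREx 293 cells, equilibrated 90 min at 22°C in HEPES-buffered HBSS, pH 7.4, with 0.1% DMSO. Peptide-evoked optical wavelength shift recorded for 60 min at 22°C, buffer/solvent corrected and quantified as area under the curve. Mean ± SEM of at least 3 independent experiments.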
Target sequence in this assay (Q15743 2-365 limits assumed): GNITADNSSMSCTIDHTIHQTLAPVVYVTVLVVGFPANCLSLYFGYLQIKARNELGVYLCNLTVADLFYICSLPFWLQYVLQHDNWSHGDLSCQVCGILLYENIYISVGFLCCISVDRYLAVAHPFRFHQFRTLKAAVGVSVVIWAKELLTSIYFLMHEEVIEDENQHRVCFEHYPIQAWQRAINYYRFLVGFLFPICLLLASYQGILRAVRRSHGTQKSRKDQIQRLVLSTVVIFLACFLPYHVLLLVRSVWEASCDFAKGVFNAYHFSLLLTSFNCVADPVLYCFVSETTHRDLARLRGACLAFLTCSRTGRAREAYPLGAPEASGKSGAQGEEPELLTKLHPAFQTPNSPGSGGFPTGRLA

GPR68 [2] = assay: β-arrestin recruitment (Tango); type: cell-based, human
Protocol: The peptide library was additionally screened against 120 GPCR targets in parallel, including all available orphan receptors and 27 known class A peptide receptors using the Tango assay platform ([Kroeze et al., 2015]). Briefly, HTLA cells (a HEK293 cell line stably expressing a tTA-dependent luciferase reporter and a β-arrestin2-TEV fusion gene) were plated 10,000 cells/well in poly-L-lysine–coated clear-bottom white 384-well plates in DMEM supplemented with 10% FBS, 100 U/ml penicillin and 100 μg/ml streptomycin, 2 μg/ml puromycin and 100 μg/ml hygromycin B. 24 hr later, cells were transfected with Tango GPCR constructs using the calcium phosphate method ([Jordan et al., 1996]). The next day, culture medium was changed to DMEM + 1% dFBS and 10 μM peptides were added for overnight stimulation. Bright-Glo solution (Promega) was incubated for 15–20 min at room temperature, and luminescence was counted using a Trilux luminescence counter (Wallac).
For subsequent peptide validation experiments using Tango assays, HTLA cells were transiently transfected in 10 cm dishes with the receptor of interest using polyethylenimine (PEI) ([Longo et al., 2013]). […] Assays were performed as described above, with luminescence measured using an EnSpire 2300 Multimode plate reader (PerkinElmer). Luminescence counts were exported into Excel and were analyzed using GraphPad Prism 7.

GPR68 [3] = target: T1, GPR68; assay: GloSensor cAMP assay (Gs), allosteric operational model fitting; type: cell-based; set-up: expressed in transfected cells; host or cells: HEK293T, transient (PEI), co-transfected with GloSensor cAMP plasmid
Protocol: GPR68-mediated cAMP signaling was measured using GloSensor cAMP assays as published previously ([Huang et al., 2015], [Yu et al., 2019]) with modifications as indicated below. Calcium- and magnesium-free HBSS was supplemented with different organic buffer reagents for different pH solutions, 20 mM 2-(N-morpholino)ethanesulfonic acid (MES, Alfa Aesar) for pH 6.00 – 6.70, 20 mM 4-(2-hydroxyethyl)-1-piperazineethanesulfonic acid (HEPES, Fisher) for pH 6.80 – 8.20, and 20 mM (tris(hydroxymethyl)methylamino)propanesulfonic acid (TAPS) for pH 8.30 – 8.60. The phosphodiesterase (PDE) inhibitor Ro 20-1724 (10 μM final, Cayman Chemical) was included in pH buffers to eliminate potential effect of PDE […]. HEK293T cells were transfected with a modified polyethylenimine (PEI, Polysciences) transfection method ([Longo et al., 2013]). For a 15-cm dish of HEK293T cells with 25 mL growth medium, 8 μg receptor DNA and 8 μg GloSensor DNA (Promega) were mixed in 1 mL of Opti-MEM medium followed by addition of 80 μL PEI reagents. The mixture was added to cells after 20 min incubation at room temperature. Overnight transfected cells were plated in poly-L-lysine (Sigma) coated 384-well white clear bottom plates (Greiner Bio-One, #781098) using DMEM (Corning) + 1% dialyzed FBS (Omega Scientific) for at least 6 h (up to 24 h). Cells were removed of medium before receiving 20 μL/well of 3.5 mM luciferin (Goldbio) prepared in assay buffer (HBSS, 20 mM TAPS, pH 8.40, 10 μM Ro 20-1724) for 1 h at 37°C. Luciferin loading solutions were removed and premixed drug solutions at desired pH conditions were added to cells (25 μL/well). Luminescence was measured 25-30 min after drug application. Results were normalized (basal and maximum responses in the absence of modulator were set to be 0 and 100%) and pooled for analysis using GraphPad Prism.
All of the other parameters, including allosteric affinity cooperativity (α), allosteric modulator binding affinity KB, orthosteric agonist (protons) efficacy τA, system maximal response, and slope factor n were all globally shared for all datasets for each modulator. […] We therefore used an allosteric index, log(αβ/KB) ([Kenakin, 2017a]), which contains both allosteric binding affinity and cooperativity, to quantify the overall allosteric activity.
Target sequence in this assay (Q15743 whole entry): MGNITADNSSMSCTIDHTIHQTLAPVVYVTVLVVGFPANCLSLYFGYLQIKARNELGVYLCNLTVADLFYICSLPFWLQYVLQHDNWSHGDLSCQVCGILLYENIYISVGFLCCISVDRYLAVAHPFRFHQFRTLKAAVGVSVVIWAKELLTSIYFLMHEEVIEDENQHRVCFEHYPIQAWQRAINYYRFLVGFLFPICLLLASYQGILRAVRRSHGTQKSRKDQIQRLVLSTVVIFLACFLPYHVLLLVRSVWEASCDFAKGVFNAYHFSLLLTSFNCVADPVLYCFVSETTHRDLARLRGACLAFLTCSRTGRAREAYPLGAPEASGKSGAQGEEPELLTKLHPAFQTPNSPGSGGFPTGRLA

[4] = GPR68, pH 7.4, tested as PAM, data from resynthesized peptide, mean, SEM and n

Compound	Emax, DMR (AUC) (GPR68 [1])	EC50 (GPR68 [1]) [nM]	Comment on response, Tango (fold over basal); Emax and pEC50 n.d. (GPR68 [2])	Emax, cAMP (fold over basal, pH 7.4) (GPR68 [3]; [4]) [fold over basal]	EC50 (GPR68 [3]; GPR68, pH 7.4, tested as PAM, data from resynthesized peptide, mean, SEM and n, read-out: pEC50, cAMP (fold over basal, pH 7.4) (converted)) [nM]	EC50 (GPR68 [3]) [nM]
CC[C@H](C)[C@H](NC(=O)[C@H](CCCNC(=N)N)NC(=O)[C@H](C)NC(=O)CNC(=O)[C@H](CCCCN)NC(=O)[C@H](CCCNC(=N)N)NC(=O)[C@@H](NC(=O)[C@H](C)NC(=O)[C@@H]1CSSC[C@H](NC(=O)[C@H](CCSC)NC(=O)[C@@H]2CCCN2C(=O)[C@@H](NC(=O)[C@H](CCC(N)=O)NC(=O)CNC(=O)[C@@H](N)Cc2ccc(O)cc2)C(C)C)C(=O)N[C@@H](CC(=O)O)C(=O)N[C@@H](C)C(=O)NCC(=O)N[C@@H](CCC(=O)O)C(=O)N[C@@H](CCC(N)=O)C(=O)N1)C(C)C)C(N)=O [CART(42-89)_(9-28)] (H-YGQVPMCDAGEQCAVRKGARI-NH2; disulfide 7-13; N-terminus assumed)	944453.3	1050	No response	25.2	4570	–
CC(C)C[C@H](NC(=O)[C@@H]1CCCN1C(=O)[C@H](Cc1ccccc1)NC(=O)[C@H](C)NC(=O)[C@H](CCC(=O)O)NC(=O)[C@H](C)NC(=O)[C@H](CO)NC(=O)[C@H](CCC(=O)O)NC(=O)[C@H](CC(N)=O)NC(=O)[C@H](CCC(=O)O)NC(=O)[C@H](C)NC(=O)[C@@H](NC(=O)[C@H](CC(N)=O)NC(=O)[C@@H]1CCCN1C(=O)[C@H](Cc1ccc(O)cc1)NC(=O)[C@@H](NC(=O)[C@H](CCCCN)NC(=O)[C@@H](NC(=O)[C@@H]1CCCN1C(=O)[C@H](CCCNC(=N)N)NC(=O)[C@@H](N)CCCNC(=N)N)C(C)C)C(C)C)C(C)C)C(=O)N[C@@H](CCC(=O)O)C(=O)N[C@@H](Cc1ccccc1)C(=O)O [Corticotropin_(17-40)] (H-RRPVKVYPNVAENESAEAFPLEF-OH; N-terminus and C-terminus assumed)	781397.0	1290	No response	24.2	–	7410
